According to patent publication US20180092894A1, “TREATMENT OF EOSINOPHILIC INFLAMMATORY DISEASE” (Northwestern University, priority 2016, published 2018):

Columns and labels:
Assay type in all cases: cell-based, human
[1] = system: IL-13-induced eotaxin-3 protein secretion in BEAS-2B cells; experiment: IL-13-induced eotaxin-3 protein secretion in BEAS-2Bs (ELISA); details: for effect on IL-13-induced eotaxin-3 protein secretion: 2 h pretreatment (1-50 μM), IL-13 5 ng/ml 48 h
Procedure: (§1) BEAS-2B, a human bronchial epithelial cell line transformed with a hybrid adenovirus 12-simian virus 40 was obtained from ATCC (CRL-9609, Manassas, Va.). Primary HNECs were collected by epithelial scraping of IT and NP and cultured. For cytokine (Peprotech, Rocky Hill, N.J.) stimulation, submerged cultured cells were treated with 1-100 ng/ml IL-13, 10 ng/ml IFN-γ, 100 ng/ml TNF or 50 ng/ml IL-17 for 6 h or 48 h. To study the effects of PPIs (Sigma-Aldrich, St Louis, Mo.) on cytokine-induced chemokines, cells were pretreated for 2 h with acid-activated omeprazole (0.1-50 μM) or other PPIs: lansoprazole, rabeprazole, pantoprazole, and esomeprazole (1-50 μM) prior to stimulation with 5 ng/ml IL-13. Additionally, SCH-28080 (1-50 μM; Sigma-Aldrich) was used with the same protocol. In experiments altering extracellular K^+ concentration ([K^+]e), modified Ringer's solution that contained different contents of K^+ (0-11.2 mM KCl, Table 4) was used as culture media. For mRNA stability assessment, actinomycin D (3 μg/ml, Sigma-Aldrich) was used and eotaxin-3 mRNA was measured using real-time PCR. Supernatants, whole cell lysates, and total RNAs were harvested for further analysis.
(§2) Eotaxin-1, eotaxin-2, and eotaxin-3 protein concentrations in supernatants were determined with the appropriate ELISA kits.

[2] = system: IL-13-induced intracellular alkalinization in BEAS-2B cells (ngH,K-ATPase); experiment: Intracellular pH (pHi) imaging, pHrodo Green, IL-13-stimulated BEAS-2Bs; details: up to 1 h after IL-13, spectrofluorometry
Procedure: The pH-sensitive dye, pHrodo® Green AM intracellular pH indicator (Life Technologies) that increases its fluorescence with decreasing pHi was used (ref 39; incorporated by reference in its entirety). Cells cultured in glass bottom microwell dishes (MatTek, Ashland, Mass.) were pre-treated with omeprazole or vehicle prior to 6 h IL-13 stimulation. Then cells were incubated with dye (5 μM) with live cell imaging solution (Life Technologies) at 37° C. for 30 minutes per manufacturer's instructions. Spinning disk confocal microscopy for live cells imaging was performed with Andor XDi Revolution (Andor Technologies, Belfast, UK). Fluorescence intensity was measured in 150 cells using Image J software (National Institutes of Health, Bethesda, Md.). For kinetic experiments, fluorescence intensity of cells cultured in 96-well plates with omeprazole, SCH-28080 or matched vehicle was measured at various times before and after IL-13 stimulation up to 1 h using the SpectraMax® Gemini EM Microplate Spectrofluorometer (Molecular devices, Sunnyvale, Calif.) at 485/538 nm (excitation/emission).

[3] = system: IFN-γ-induced CXCL-10 (IP-10); experiment: IFN-γ-induced CXCL10 (IP-10) mRNA expression in BEAS-2B cells; details: PPI 5 μM 2 h, IFN-γ 10 ng/ml 6 h
Procedure: (§3) FIG. 9. […] Cells were pretreated with various PPIs for 2 h and stimulated for 6 h with IFN-γ (10 ng/ml), TNF (100 ng/ml) or IL-17 (50 ng/ml). IFN-γ-induced CXCL10 (IP-10), TNF-α-induced eotaxin-1, and IL-17-induced CXCL1 mRNA expression levels in total RNA from cells were measured by using real-time PCR. Data represent means±SEM compared with vehicle-treated/cytokine-stimulated cells. O, omeprazole; L, lansoprazole; R, rabeprazole; P, pantoprazole; E, esomeprazole all at 5 μM
as §1
(§4) mRNA levels of eotaxin-1, eotaxin-2, eotaxin-3, CXCL1, CXCL10, ATP12A, and ATP4A in total RNAs isolated from cells were measured using quantitative real-time PCR. Western blots were performed to assess total signal transducer and activator of transcription 6 (STATE), phosphorylated-STAT6 (pSTAT6) and ATP12A protein in whole cell lysates (ref. 38; incorporated by reference in its entirety).

TNF-α-induced eotaxin-1 = TNF-α-induced eotaxin-1 mRNA expression in BEAS-2B cells; details: PPI 5 μM 2 h, TNF 100 ng/ml 6 h
Procedure: as §3, §1, §4

IL-17-induced CXCL-1 = experiment: IL-17-induced CXCL1 mRNA expression in BEAS-2B cells; details: PPI 5 μM 2 h, IL-17 50 ng/ml 6 h
Procedure: as §3, §1, §4

[4] = system: IL-13-induced eotaxin-3 protein secretion in HNECs; experiment: IL-13-induced eotaxin-3 protein secretion in HNECs (ELISA)
Procedure: as §1, §2

pSTAT6 = experiment: IL-13-induced STAT6 phosphorylation in BEAS-2Bs (Western blot)
Procedure: FIGS. 6A-6D. Effects of omeprazole on IL-13-induced STAT6 phosphorylation and eotaxin-3 mRNA stability. FIG. 6A, In IL-13-stimulated BEAS-2Bs with omeprazole or vehicle, pSTAT6 and total STAT6 protein expression were measured by using Western blots. FIG. 6B, Semi-quantitative densitometry data for A (Mean±SEM, n=3-6). FIG. 6C, Experimental protocol for eotaxin-3 mRNA stability assessment using real-time PCR. FIG. 6D, Relative eotaxin-3 mRNA expression levels following treatment with actinomycin D and/or omeprazole. mRNA levels of eotaxin-1, eotaxin-2, eotaxin-3, CXCL1, CXCL10, ATP12A, and ATP4A in total RNAs isolated from cells were measured using quantitative real-time PCR. Western blots were performed to assess total signal transducer and activator of transcription 6 (STATE), phosphorylated-STAT6 (pSTAT6) and ATP12A protein in whole cell lysates (ref. 38; incorporated by reference in its entirety).

[5] = 5 μM omeprazole, 2 h pretreatment, IL-13 48 h

SMILES	effect on IL-13-induced eotaxin-3 protein secretion [1]	IL-13-induced intracellular alkalinization, kinetic studies [2]	IFN-γ-induced CXCL-10 (IP-10) mRNA expression [3]	TNF-α-induced eotaxin-1 mRNA expression (TNF-α-induced eotaxin-1)	IL-17-induced CXCL-1 mRNA expression (IL-17-induced CXCL-1)	lowest concentration significantly inhibiting IL-13-induced eotaxin-3 protein secretion [1] [µM]	IL-13-induced eotaxin-3 protein secretion was reduced [1, 5] [%]	lowest concentration significantly inhibiting IL-13-induced eotaxin-3 protein secretion [4] [µM]	IL-13-induced eotaxin-3 protein secretion was reduced [4, 5] [%]	IL-13-induced pSTAT6 (pSTAT6)
Cc1nc2c(OCc3ccccc3)cccn2c1CC#N [SCH-28080]	significantly inhibited	blunted								
COc1ccc2nc([S@@+]([O-])Cc3ncc(C)c(OC)c3C)[nH]c2c1 [esomeprazole, S-5-methoxy-2-{(4-methoxy-3,5 dimethylpyridin-2-yl)methylsufinyl]-3H-benzoimidazole]	dose-dependent inhibitory effects		did not inhibit	did not inhibit	did not inhibit					
Cc1c(OCC(F)(F)F)ccnc1C[S+]([O-])c1nc2ccccc2[nH]1 (stereo not shown) [lansoprazole]	dose-dependent inhibitory effects		did not inhibit	did not inhibit	did not inhibit					
COc1ccc2[nH]c([S+]([O-])Cc3ncc(C)c(OC)c3C)nc2c1 (stereo not shown) [omeprazole, 5- or 6-methoxy-2-{[(4-methoxy-3,5-dimethylpyridin-2-yl)methyl]sulfinyl}-1H-ben-zimidazole]			did not inhibit	did not inhibit	did not inhibit	5	57.9	1	37.1	not significantly inhibited
COc1ccnc(C[S+]([O-])c2nc3ccc(OC(F)F)cc3[nH]2)c1OC (stereo not shown) [pantoprazole]			did not inhibit	did not inhibit	did not inhibit					
COCCCOc1ccnc(C[S+]([O-])c2nc3ccccc3[nH]2)c1C (stereo not shown) [rabeprazole, 2-([4-(3-methoxypropoxy)-3-methylpyridin-2-yl]methylsulfinyl)-1H-benzo(d)-imidazole]	dose-dependent inhibitory effects		did not inhibit	did not inhibit	did not inhibit					
